According to patent US20090117563A1, “Identification of TRPML3 (MCOLN3) as a Salty Taste Receptor and Use in Assays for Identifying Taste (Salty) Modulators and/or Therapeutics that Modulate Sodium Transport, Absorption or Excretion and/or Aldosterone and/or Vasopressin Production or Release” (priority 2007, published 2009):

Target: T1, A419P TRPML3 (Homo sapiens, UniProt Q8TDD5, A419P)
T1 construct: expressed in transfected cells
T1 sequence (Q8TDD5 1-553 A419P): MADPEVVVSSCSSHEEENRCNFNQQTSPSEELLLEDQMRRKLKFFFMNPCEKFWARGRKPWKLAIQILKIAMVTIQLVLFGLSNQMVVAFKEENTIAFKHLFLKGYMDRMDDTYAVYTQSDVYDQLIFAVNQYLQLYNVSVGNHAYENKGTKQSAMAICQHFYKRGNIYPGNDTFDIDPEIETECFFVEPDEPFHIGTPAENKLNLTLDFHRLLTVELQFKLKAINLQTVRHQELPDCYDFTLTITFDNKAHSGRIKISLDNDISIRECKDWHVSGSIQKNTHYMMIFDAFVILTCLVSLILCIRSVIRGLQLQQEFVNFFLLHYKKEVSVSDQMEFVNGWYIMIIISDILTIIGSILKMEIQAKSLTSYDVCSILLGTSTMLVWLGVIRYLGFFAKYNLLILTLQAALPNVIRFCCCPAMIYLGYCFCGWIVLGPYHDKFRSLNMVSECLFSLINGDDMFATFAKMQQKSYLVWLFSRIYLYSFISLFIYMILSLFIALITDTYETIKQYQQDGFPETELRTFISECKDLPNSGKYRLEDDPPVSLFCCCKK
Assay: FLIPR membrane potential dye assay, HEK293 cells expressing A419P-TRPML3
Format: cell-based
Settings: for effect on basal fluorescence, dose dependence: increasing concentrations of gadolinium, compared to RFP-transfected cells
Excerpt: Specific cell-based assays for the discovery of TRPML3 modulators were developed which that could ultimately be used in food and beverages to modulate saltiness perception. A419P-TRPML3 function was monitored in HEK293 cells transiently transfected or transduced with the gene encoding A419P-TRPML3 and using specific membrane potential dyes (FMPs; Molecular Devices).
HEK293 cells were transiently transfected with RFP, αENaC or A419P-TRPML3 and were loaded with a membrane potential dye (R-8034; Molecular Devices) in HBSS at room temperature for 30 minutes. Membrane potential (fluorescent signal) was monitored on a FLIPR system (Molecular Devices).
HEK293 cells were transiently transfected with RFP or A419P-TRPML3 and were loaded with a membrane potential dye (R-8034; Molecular Devices) in HBSS at room temperature for 30 minutes. Membrane potential (fluorescent signal) was monitored on a FLIPR system (Molecular Devices).
HEK293 cells were transiently transfected with RFP or A419P-TRPML3 and were loaded with a membrane potential dye (R-8034; Molecular Devices) in HBSS at room temperature for 30 minutes. HBSS, NMDG and increasing concentrations of gadolinium were added to the cells and resulting changes in membrane potential (fluorescent signal) was monitored on a FLIPR system (Molecular Devices).
HEK293 cells were transiently transfected with RFP, A419P-TRPML3 or αENaC plasmid and were loaded with a membrane potential dye (R-8034; Molecular Devices) in HBSS at room temperature for 30 minutes. HBSS (control), 3 mM gadolinium and 30 uM Amiloride were added to the cells and resulting changes in membrane potential (fluorescent signal) was monitored on a FLIPR system (Molecular Devices).

SMILES: [Cl][Gd]([Cl])[Cl] [gadolinium, gadolinium chloride]
- effect on basal fluorescence counts, specificity (3 mM gadolinium, A419P-TRPML3 versus αENaC transfected cells): preferentially reduces basal fluorescence counts
- effect on basal fluorescence, dose dependence: significantly reduces the basal fluorescence
- effect on basal fluorescence, dose dependence (listed as Gadolinium): reversed the increase in fluorescence in a dose-dependent and specific fashion
- effect on basal fluorescence (membrane potential) (transiently transfected HEK293, single addition of gadolinium): significantly reduces the basal fluorescence
